Test results as given in publication PMC9675978 (The Journal of steroid biochemistry and molecular biology, 2022).
Where a chain is given by its changes, count along the chain named. Where a name gives a salt, the structure may show the parent alone.

What was measured:
AKR1C3 K104D [1] = biological target: T1, AKR1C3 K104D (Homo sapiens, UniProt P42330, K104D); experiment: Specific activity after preincubation at 37 °C with cofactor; type: biochemical; conditions: alone roughly 50%
T1 sequence (P42330 1-323 K104D): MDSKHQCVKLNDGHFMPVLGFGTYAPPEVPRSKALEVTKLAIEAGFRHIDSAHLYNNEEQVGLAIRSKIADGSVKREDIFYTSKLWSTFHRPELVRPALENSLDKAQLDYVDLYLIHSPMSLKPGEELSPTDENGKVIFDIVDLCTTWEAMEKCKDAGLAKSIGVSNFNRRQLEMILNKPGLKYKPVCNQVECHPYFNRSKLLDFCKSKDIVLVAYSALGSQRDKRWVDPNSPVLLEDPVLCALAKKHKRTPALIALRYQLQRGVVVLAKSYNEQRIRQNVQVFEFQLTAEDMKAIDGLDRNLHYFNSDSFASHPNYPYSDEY

AKR1C3 WT = biological target: T2, AKR1C3 WT (Homo sapiens, UniProt P42330); experiment: Kd for NAD; type: binding; conditions: read-out: Kd NADP+, 0.5 μM protein, pH 7.0, 25 °C, Morrison equation
T2 sequence (P42330 1-323): T1 sequence (P42330 1-323 K104D) with D104K

AKR1C3 H5Q = biological target: T3, AKR1C3 H5Q (Homo sapiens, UniProt P42330, H5Q); experiment: Kd for NAD; type: binding; conditions: read-out: Kd NADP+, 0.5 μM protein, pH 7.0, 25 °C, Morrison equation
T3 sequence (P42330 1-323 H5Q): T1 sequence (P42330 1-323 K104D) with H5Q, D104K

AKR1C3 E77G = biological target: T4, AKR1C3 E77G (Homo sapiens, UniProt P42330, E77G); experiment: Kd for NAD; type: binding; conditions: read-out: Kd NADP+, 0.5 μM protein, pH 7.0, 25 °C, Morrison equation
T4 sequence (P42330 1-323 E77G): T1 sequence (P42330 1-323 K104D) with E77G, D104K

AKR1C3 K104D [2] = biological target: T1, AKR1C3 K104D; experiment: Kd for NAD; type: binding; conditions: read-out: Kd NADP+, 0.5 μM protein, pH 7.0, 25 °C, Morrison equation
AKR1C3 = conditions: cited from earlier work

NC(=O)c1ccc[n+]([C@@H]2O[C@H](COP(=O)([O-])OP(=O)(O)OC[C@H]3O[C@@H](n4cnc5c(N)ncnc54)[C@H](O)[C@@H]3O)[C@@H](O)[C@H]2O)c1 [NAD+, nicotinamide adenine dinucleotide Grade II free acid]
K104D activity remaining (% of activity at 0 min) (AKR1C3 K104D [1]; K104D preincubated at 37 °C with 2 mM NAD+, four hours): roughly 75%

NC(=O)c1ccc[n+]([C@@H]2O[C@H](COP(=O)([O-])OP(=O)(O)OC[C@H]3O[C@@H](n4cnc5c(N)ncnc54)[C@H](OP(=O)(O)O)[C@@H]3O)[C@@H](O)[C@H]2O)c1 [NADP+, nicotinamide adenine dinucleotide phosphate oxidized disodium salt]
Kd (AKR1C3 WT): 110 ± 17 nM | Kd (AKR1C3 H5Q): 120 ± 33 nM | Kd (AKR1C3 E77G): 120 ± 35 nM | Kd (AKR1C3 K104D [2]): 100 ± 47 nM | K104D activity remaining (% of activity at 0 min) (AKR1C3 K104D [1]; K104D preincubated at 37 °C with 2 mM NADP+, over four hours): 100% | binding affinity of NADP+ relative to NAD+ (AKR1C3): ~1000 times
